Earlier results, collected in patent US20230142073A1 (priority 2020, published 2023).
Where two headings read alike, the source gives them in different places.

Key:
[1] = test system: SARS-CoV-2 infected patients presenting with Severe Acute Respiratory Distress Syndrome (SARDS); details: 10 ppm NO inhaled; baseline 102
[2] = test system: human patients with a coronavirus (SARS-CoV-2) infection
Sars-Cov-2 ARDS patients = details: iv 2 μg/kg/min; in the following 6 hours; 19 patients; baseline 79; p-value=0.001
[3] = test system: person with a SARS-CoV-2 infection and Severe Acute Respiratory Distress Syndrome (SARDS); details: iv 4 μg/kg/min; for PaO2: baseline 63; for PaO2/FiO2: baseline 70
[4] = test system: SARS-CoV-2 infected patients, exhibiting Acute Respiratory Distress Syndrome (ARDS); details: iv 10 μg/kg/min, mean maintenance 1.65 μg/kg/min
[5] = 10 patients, iv 4 then 12 μg/kg/min
[6] = 1 hour after almitrine infusion
[7] = 2 hours after almitrine infusion
[8] = 12 hours after almitrine infusion

SMILES	median PaO2/FiO2 after NO [1]	median PaO2/FiO2 ratio after almitrine administration ([2]; 10 patients, 135 before almitrine, iv 4 then 12 μg/kg/min)	increase of median PaO2/FiO2 ratio ([2]; 10 patients, from 135 before to 215 after almitrine)	cardiac index [2, 5]	right atrial pressures [2, 5]	number of patients with increased PaO2/FiO2 ([2]; out of 10 human patients (median age 70), iv 4 μg/kg/min for 30-45 min, then 12 μg/kg/min for 30-45 min, intubated and ventilated)	median PaO2/FiO2 after almitrine (Sars-Cov-2 ARDS patients)	PaO2 [3, 6]	PaO2/FiO2 [3, 6]	PaO2 [3, 7]	PaO2/FiO2 [3, 7]	PaO2 [3, 8]	PaO2/FiO2 [3, 8]	lower mortality ([4]; 32 patients)	side-effects ([4]; 32 patients)	responders (PaO2 increase of more than 20%) ([4]; 32 patients, NO inhaled in 75% of cases)	mean increase in PaO2 ([4]; responders)
[N]=O [NO, Nitric Oxide]	124 mmHg																
C=CCNc1nc(NCC=C)nc(N2CCN(C(c3ccc(F)cc3)c3ccc(F)cc3)CC2)n1.CS(=O)(=O)O [almitrine dimesylate, 6-[4-[bis(4-fluorophenyl)methyl]piperazin-1-yl]-2-N,4-N-bis(prop-2-enyl)-1,3,5-triazine-2,4-diamine methanesulfonic acid]		215 mmHg	80 mmHg	not affected	not affected	8	117 mmHg	67 mm Hg	84 mmHg	130 mm Hg	216 mmHg	170 mm Hg	283 mmHg	16%	no significant side-effects	66%	67%
